From patent US7741327B2 (Hoffmann-La Roche Inc., priority 2008, dated 2010)

Legend:
[1] = molecular target: T1, Recombinant human liver GK1 (GST-GK) (Homo sapiens, UniProt P35557); assay: In vitro glucokinase activity (G6PDH-coupled NADH assay); assay type: biochemical; conditions: 30° C., 5 mM D-glucose, 10% DMSO
T1 construct: made in house; host or cells: E. coli
T1 sequence (P35557 1-466 isoform P35557-2): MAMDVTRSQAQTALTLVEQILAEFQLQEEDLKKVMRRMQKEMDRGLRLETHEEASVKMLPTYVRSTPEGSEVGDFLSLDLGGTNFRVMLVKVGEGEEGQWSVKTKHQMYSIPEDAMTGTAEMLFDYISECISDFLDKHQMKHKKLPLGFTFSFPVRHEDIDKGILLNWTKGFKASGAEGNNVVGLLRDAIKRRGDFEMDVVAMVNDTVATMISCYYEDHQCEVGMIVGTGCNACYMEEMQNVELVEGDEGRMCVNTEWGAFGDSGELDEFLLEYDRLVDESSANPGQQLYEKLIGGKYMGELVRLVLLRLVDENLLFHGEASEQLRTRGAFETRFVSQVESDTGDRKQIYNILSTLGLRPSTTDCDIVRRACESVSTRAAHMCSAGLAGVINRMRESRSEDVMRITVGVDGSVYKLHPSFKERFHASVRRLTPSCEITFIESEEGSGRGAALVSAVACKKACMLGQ
How it was run: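 Activation measured as the rate of OD340 rise from G6PDH-coupled NADH production, relative to 10% DMSO control, reported as SC1.5 (concentration for 50% activity increase). Conditions: 30° C, pH 7.1 Hepes, 5 mM glucose, 1 mM ATP, purified recombinant GST-human GK1, compound preincubated 10 min before enzyme addition.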

C57B6 mice = assay: Glucokinase activator in vivo screen: blood glucose lowering in mice after oral dosing; conditions: Mus musculus, vs control, read-out: % gluc lowering @ 4 H; for change in vivo at 30 mg/kg: 4 h post 30 mg/kg oral dose
Experimental: Glucokinase Activator in vivo Screen Protocol in Lean and Diet Induced Obese Mice: Lean or Diet-Induced Obese (DIO) C57BL/6J mice were orally dosed via gavage with Glucokinase (GK) activator following a two hour fasting period. Blood glucose determinations were made at various (e.g. 0, 1, 2, 4 and 8 h post-oral gavage) times during the study.
C57Bl/6J mice were obtained from Jackson Laboratory (Bar Harbor, Me.) and were maintained in a light-dark cycle with lights on from 0600-1800 hr. For studies in lean mice, the mice were received at age ten weeks and given ad libitum access to control diet (LabDiet 5001 chow, PMI Nutrition, Brentwood, Mo.), and were at least age 11 weeks at the time of study. For studies in the DIO model, the mice were received at age five weeks and given ad libitum access to Bio-Serv F3282 High Fat Diet (Frenchtown, N.J.), and were at least age 16 weeks at the time of study. The experiments were conducted during the light phase of the light-dark cycle. Mice (n=6) are weighed and fasted for a two hour period prior to oral treatment. GK activators are formulated in Gelucire vehicle (Ethanol:Gelucire44/14:PEG400q.s. 4:66:30 v/w/v. For studies in lean mice, the mice were dosed orally with 5.0 μL per gram of body weight (i.e. 5 ml/kg×10.0 mg/ml formulation to equal a 50 mg/kg dose). For studies in DIO mice, the mice were dosed orally with 5.0 μL per gram of body weight (i.e. 5.0 ml/kg×5 mg/ml formulation to equal a 25 mg/kg dose). Immediately prior to dosing, a pre-dose (time zero) blood glucose reading was acquired by snipping off a small portion of the animal's tail and collecting 15 μL blood into a heparinized capillary tube for analysis. Following GK activator administration, additional blood glucose readings were taken at various time points post dose from the same tail wound. Results were interpreted by comparing the mean blood glucose values of vehicle treated mice with GK activator treated mice over the study period.
The Table below provides data for % glucose lowering of a representative number of compounds of the present invention vs control at 4 h post 25 or 30 mg/kg dose in C57B6 mice: […]

`CC(C)C[C@@H](C(=O)Nc1ccn(C[C@@H](O)CO)n1)N1CC(Oc2c(F)cccc2F)=CC1=O` [Example 47, (S)-2-[4-(2,6-difluoro-phenoxy)-2-oxo-2,5-dihydro-pyrrol-1-yl]-4-methyl-pentanoic acid [1-((R)-2,3-dihydroxy-propyl)-1H-pyrazol-3-yl]-amide] was tested, and the “SC1.5 (concentration of activator that produced a 50% increase in the activity of GK)” value [1] was 0.257 µM and the change in vivo at 30 mg/kg (C57B6 mice) was -33.2%.

For `COc1cccc(OC2=CC(=O)N([C@@H](CC(C)C)C(=O)Nc3ccn(C[C@@H](O)CO)n3)C2)c1Cl` [Example 49], the “SC1.5 (concentration of activator that produced a 50% increase in the activity of GK)” value [1] was 0.079 µM and the change in vivo at 30 mg/kg (C57B6 mice) was -38.3%.

In the case of `O=C(Nc1ccn(C[C@@H](O)CO)n1)[C@H](CC1CCCC1)N1CC(Oc2c(F)cccc2F)=CC1=O` [Example 88, (S)-3-Cyclopentyl-2-[4-(2,6-difluoro-phenoxy)-2-oxo-2,5-dihydro-pyrrol-1-yl]-N-[1-((R)-2,3-dihydroxy-propyl)-1H-pyrazol-3-yl]-propionamide], the “SC1.5 (concentration of activator that produced a 50% increase in the activity of GK)” value [1] is reported as 0.03 µM and the change in vivo at 30 mg/kg (C57B6 mice) is reported as -49.3%.

`CC(C)(O)Cn1ccc(NC(=O)[C@H](CC2CCCC2)N2CC(OC3CCCC3)=CC2=O)n1` [Example 16, (S)-3-Cyclopentyl-N-[1-(2-hydroxy-2-methyl-propyl)-1H-pyrazol-3-yl]-2-(4-cyclopentyloxy-2-oxo-2,5-dihydro-pyrrol-1-yl)-propionamide] was tested, and the “SC1.5 (concentration of activator that produced a 50% increase in the activity of GK)” value [1] was 0.649 µM and the change in vivo at 25 mg/kg (C57B6 mice; 4 h post 25 mg/kg oral dose) was -36%.

With `COc1cccc(OC2=CC(=O)N([C@@H](CC3CCOCC3)C(=O)Nc3ccn(CC(C)(C)O)n3)C2)c1Cl` [Example 51, (S)-2-[4-(2-Chloro-3-methoxy-phenoxy)-2-oxo-2,5-dihydro-pyrrol-1-yl]-N-[1-(2-hydroxy-2-methyl-propyl)-1H-pyrazol-3-yl]-3-(tetrahydro-pyran-4-yl)-propionamide] the “SC1.5 (concentration of activator that produced a 50% increase in the activity of GK)” value [1] was 0.03 µM and the change in vivo at 30 mg/kg (C57B6 mice) was -53.9%.

`COc1cccc(OC2=CC(=O)N([C@@H](CC(C)C)C(=O)Nc3ccn(CC(C)(C)O)n3)C2)c1Cl` [Example 48, (S)-2-[4-(2-Chloro-3-methoxy-phenoxy)-2-oxo-2,5-dihydro-pyrrol-1-yl]-4-methyl-pentanoic acid [1-(2-hydroxy-2-methyl-propyl)-1H-pyrazol-3-yl]-amide] was tested, and the “SC1.5 (concentration of activator that produced a 50% increase in the activity of GK)” value [1] was 0.078 µM and the change in vivo at 30 mg/kg (C57B6 mice) was -57.4%.

For `COc1ccccc1OC1=CC(=O)N([C@@H](CC2CCCC2)C(=O)Nc2ccn(CC(C)(C)O)n2)C1` [Example 27, (S)-3-Cyclopentyl-N-[1-(2-hydroxy-2-methyl-propyl)-1H-pyrazol-3-yl]-2-[4-(2-methoxy-phenoxy)-2-oxo-2,5-dihydro-pyrrol-1-yl]-propionamide], the “SC1.5 (concentration of activator that produced a 50% increase in the activity of GK)” value [1] was 0.029 µM and the change in vivo at 30 mg/kg (C57B6 mice) was -52.2%.
